Test results reported in patent US9738600B2, “ROR gamma (RORγ) modulators” (LEAD PHARMA CEL MODELS IP B.V., priority 2013, dated 2017).

Biological target: T1, RORγ (Homo sapiens, UniProt P51449)
T1 sequence (P51449 269-508 limits assumed): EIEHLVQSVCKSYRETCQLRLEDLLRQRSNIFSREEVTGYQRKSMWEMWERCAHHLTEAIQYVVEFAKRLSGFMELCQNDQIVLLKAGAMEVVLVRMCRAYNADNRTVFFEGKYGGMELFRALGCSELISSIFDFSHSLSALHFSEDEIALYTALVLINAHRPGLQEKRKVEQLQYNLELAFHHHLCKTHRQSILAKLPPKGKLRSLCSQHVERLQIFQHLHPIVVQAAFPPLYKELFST
Assay: RORγ GAL4 reporter gene assay
Details: mean pIC50, inhibition of RORγ (GAL4-RORγ-LBD) in 293FT cells, luciferase readout, overnight incubation
Text: The RORγ ligand-binding domain (LBD) was fused to the yeast GAL4 DNA binding domain (DBD) and placed under the control of the human cytomegalovirus (CMV) immediate early promoter, using expression vector pFN26A (Promega) and standard recombinant DNA cloning methods.
To monitor the inhibitory effect of compounds on RORγ, a transcriptional reporter construct was used. The pGL4.35 vector (Promega) contains nine copies of the GAL4 Upstream Activator Sequence (UAS). This sequence drives the transcription of the luciferase reporter gene luc2P in response to binding of a fusion protein containing the GAL4 DNA binding domain, as for example expressed by the GAL4-RORγ-LBD and GAL4-VP16 expression vectors described above.
The day after transfection, cells were plated into 96 well plates, test compound was added and the plates were incubated overnight. Subsequently, the firefly luciferase activity was quantified using luciferase detection reagent and luminescence readout.
1500 μL of this reagent mixture was added to 5 μg of GAL4 fusion protein expression vector and 5 μg of the transcriptional reporter construct, and incubated at RT for 20 minutes.
Subsequently, the cells were washed with Phosphate Buffered Saline (PBS) (Lonza), after which the PBS was removed. To dissociate the cells, 1 ml of TrypLE Express (Invitrogen) was added to the flask, followed by incubation at RT until the cells visually started to detach. Cells were collected in 5 mL of assay medium (DMEM culture medium (Lonza), 10% dialyzed FBS (Invitrogen) and Pen/Strep (Lonza)) to achieve a single cell suspension. 10×10^6 cells were spun down and re-suspended in 10 mL of assay medium. Subsequently, the cell suspension was added to the transfection mix tube, and then transferred as a whole to a T75 flask (Greiner), followed by overnight (16-24 hours) incubation at 37° C. and 5% CO2.
For compound screening, the cells were harvested (as described above) and counted. […] 80 μL of cell suspension (60,000 cells) was plated per well into a white, flat bottom, tissue culture treated, 96 well screening plates (Greiner).
Test compounds were diluted, starting from a 10 mM dimethylsulfoxide (DMSO) stock solution, to serial dilutions in DMSO at 500× the final test concentration. Subsequently, these solutions were diluted to 5× the final test concentration in two 10-fold-dilution steps in assay medium. The final DMSO concentration of the 5× test compound solution was 1%. 20 μL of the 5× test compound solution was added to each test well of the 96 well plate previously plated with 80 μl cell suspension, resulting in the final test concentration with 0.2% DMSO.
The plates were incubated overnight (16-24 hours) at 37° C. and 5% CO2.
For the luciferase readout, the luciferase reagent (Britelite Plus, Perkin Elmer) was brought to RT. […] The luciferase luminescence signal was measured using a Wallac Victor Microplate Reader (Perkin Elmer).
The half maximum inhibitory concentration (IC50) values for the test compounds were calculated from the luciferase signal using GraphPad Prism software (GraphPad Software).

**Q.** O=C(Cc1ccc(S(=O)(=O)CC2CC2)cc1)Nc1ccc(C(OCCC2CC2)(C(F)(F)F)C(F)(F)F)cc1 [Example 58, N-(4-(2-(2-cyclopropylethoxy)-1,1,1,3,3,3-hexafluoropropan-2-yl)phenyl)-2-(4-((cyclopropylmethyl)sulfonyl)phenyl)acetamide] was tested. Which IC50 did it give?
**A.** The IC50 was at most 1000 nM.

**Q.** CCS(=O)(=O)c1ccc(CC(=O)Nc2ccc(C(O)(C(C)C)C(F)(F)F)cc2)cc1 (centres unmarked) [Example 65, 2-(4-(ethylsulfonyl)phenyl)-N-(4-(1,1,1-trifluoro-2-hydroxy-3-methylbutan-2-yl)phenyl)acetamide] was tested. Which IC50 did it give?
**A.** The IC50 was at most 1000 nM.

**Q.** With COc1cc(NC(=O)Cc2ccc(S(=O)(=O)CC3CC3)cc2)ccc1C(O)(C(F)(F)F)C(F)(F)F [Example 56, 2-(4-((cyclopropylmethyl)sulfonyl)phenyl)-N-(4-(1,1,1,3,3,3-hexafluoro-2-hydroxypropan-2-yl)-3-methoxyphenyl)acetamide] as the compound, how does the IC50 read?
**A.** Its IC50 is at most 1000 nM.

**Q.** For CC(C(=O)Nc1ccc(C(O)(C(F)(F)F)C(F)(F)F)cc1)c1ccc(S(=O)(=O)CC2CC2)cc1 (centres unmarked) [Example 109, 2-(4-((cyclopropylmethyl)sulfonyl)phenyl)-N-(4-(1,1,1,3,3,3-hexafluoro-2-hydroxypropan-2-yl)phenyl)propanamide], which IC50 is on record?
**A.** Its IC50 is at most 100 nM.

**Q.** With CCCCC(O)(c1ccc(NC(=O)Cc2ccc(S(=O)(=O)CC)cc2)cc1)C(F)(F)F (centres unmarked) [Example 72, 2-(4-(ethylsulfonyl)phenyl)-N-(4-(1,1,1-trifluoro-2-hydroxyhexan-2-yl)phenyl)acetamide] as the compound, how does the IC50 read?
**A.** Its IC50 is at most 1000 nM.

**Q.** How did the IC50 turn out when O=C(Cc1ccc(S(=O)(=O)CC2CC2)cc1)Nc1ccc(C(O)(Cc2ccccc2)C(F)(F)F)cc1 (centres unmarked) [Example 87, 2-(4-cyclopropylmethanesulfonylphenyl)-N-[4-(1,1,1-trifluoro-2-hydroxy-3-phenylpropan-2-yl)phenyl]acetamide] was run?
**A.** Its IC50 is at most 100 nM.

**Q.** For CCS(=O)(=O)c1ccc(CC(=O)Nc2ccc(C(O)(c3ccccc3)C(F)(F)F)cc2)cc1 (centres unmarked) [Example 97, 2-(4-(ethylsulfonyl)phenyl)-N-(4-(2,2,2-trifluoro-1-hydroxy-1-phenylethyl)phenyl)acetamide], which IC50 is on record?
**A.** Its IC50 is at most 1000 nM.

**Q.** Which IC50 does the source give for Cc1c(NC(=O)Cc2ccc(S(=O)(=O)NC3CC3)cc2)ccc(C(O)(C(F)(F)F)C(F)(F)F)c1F [Example 26, 2-(4-(N-cyclopropylsulfamoyl)phenyl)-N-(3-fluoro-4-(1,1,1,3,3,3-hexafluoro-2-hydroxypropan-2-yl)-2-methylphenyl)acetamide] here?
**A.** The IC50 was at most 1000 nM.

**Q.** For CC(C)OC(c1ccc(NC(=O)Cc2ccc(S(=O)(=O)CC3CC3)cc2)cc1)(C(F)(F)F)C(F)(F)F [Example 51, 2-(4-((cyclopropylmethyl)sulfonyl)phenyl)-N-(4-(1,1,1,3,3,3-hexafluoro-2-isopropoxypropan-2-yl)phenyl)acetamide], which IC50 is on record?
**A.** The IC50 was at most 100 nM.

**Q.** How did the IC50 turn out when O=C(Cc1ccc(S(=O)(=O)CC2CC2)cc1)Nc1ccc(C(O)(C2CCCC2)C(F)(F)F)cc1 (centres unmarked) [Example 75, N-(4-(1-cyclopentyl-2,2,2-trifluoro-1-hydroxyethyl)phenyl)-2-(4-((cyclopropylmethyl)sulfonyl)phenyl)acetamide] was run?
**A.** Its IC50 is at most 10 nM.

**Q.** For COC(c1ccc(NC(=O)Cc2ccc(S(=O)(=O)CC3CC3)cc2)cc1)(C(F)(F)F)C(F)(F)F [Example 54, 2-(4-((cyclopropylmethyl)sulfonyl)phenyl)-N-(4-(1,1,1,3,3,3-hexafluoro-2-methoxypropan-2-yl)phenyl)acetamide], which IC50 is on record?
**A.** The IC50 was at most 100 nM.

**Q.** How did the IC50 turn out when CCCS(=O)(=O)c1ccc(CC(=O)Nc2ccc(C(O)(C(F)(F)F)C(F)(F)F)cc2)cc1 [Example 4, N-(4-(1,1,1,3,3,3-hexafluoro-2-hydroxypropan-2-yl)phenyl)-2-(4-(propylsulfonyl)phenyl)acetamide] was run?
**A.** The IC50 was at most 1000 nM.

**Q.** How did the IC50 turn out when O=C(Cc1ccc(S(=O)(=O)CC2CC2)cc1)Nc1ccc(C(O)(C(F)(F)F)C(F)(F)F)nc1 [Example 110, 2-(4-((cyclopropylmethyl)sulfonyl)phenyl)-N-(6-(1,1,1,3,3,3-hexafluoro-2-hydroxypropan-2-yl)pyridin-3-yl)acetamide] was run?
**A.** Its IC50 is at most 1000 nM.

**Q.** Which IC50 does the source give for O=C(Cc1ccc(S(=O)(=O)CC2CC2)cc1)Nc1ccc(C(O)(C(F)(F)F)C(F)(F)F)cc1 [Example 37, 2-(4-((cyclopropylmethyl)sulfonyl)phenyl)-N-(4-(1,1,1,3,3,3-hexafluoro-2-hydroxypropan-2-yl)phenyl)acetamide] here?
**A.** The IC50 was at most 10 nM.

**Q.** How did the IC50 turn out when CCCCOC(c1ccc(NC(=O)Cc2ccc(S(=O)(=O)CC3CC3)cc2)cc1)(C(F)(F)F)C(F)(F)F [Example 52, N-(4-(2-butoxy-1,1,1,3,3,3-hexafluoropropan-2-yl)phenyl)-2-(4-((cyclopropylmethyl)sulfonyl)phenyl)acetamide] was run?
**A.** Its IC50 is at most 100 nM.

**Q.** How did the IC50 turn out when CC(C)CCCC(O)(c1ccc(NC(=O)Cc2ccc(S(=O)(=O)CC3CC3)cc2)cc1)C(F)(F)F (centres unmarked) [Example 108, 2-(4-((cyclopropylmethyl)sulfonyl)phenyl)-N-(4-(1,1,1-trifluoro-2-hydroxy-6-methylheptan-2-yl)phenyl)acetamide] was run?
**A.** Its IC50 is at most 100 nM.

**Q.** For O=C(Cc1ccc(S(=O)(=O)NC2CC2)cc1)Nc1ccc(C(O)(C(F)(F)F)C(F)(F)F)cc1 [Example 9, 2-(4-(N-cyclopropylsulfamoyl)phenyl)-N-(4-(1,1,1,3,3,3-hexafluoro-2-hydroxypropan-2-yl)phenyl)acetamide], which IC50 is on record?
**A.** Its IC50 is at most 100 nM.

**Q.** Which IC50 does the source give for Cc1cc(NC(=O)Cc2cccc(S(=O)(=O)NC3CC3)c2)ccc1C(O)(C(F)(F)F)C(F)(F)F [Example 36, 2-(3-(N-cyclopropylsulfamoyl)phenyl)-N-(4-(1,1,1,3,3,3-hexafluoro-2-hydroxypropan-2-yl)-3-methylphenyl)acetamide] here?
**A.** The IC50 was at most 1000 nM.

**Q.** CC(C)(C)CC(O)(c1ccc(NC(=O)Cc2ccc(S(=O)(=O)NC3CC3)cc2)cc1)C(F)(F)F (centres unmarked) [Example 94, 2-(4-(N-cyclopropylsulfamoyl)phenyl)-N-(4-(1,1,1-trifluoro-2-hydroxy-4,4-dimethylpentan-2-yl)phenyl)acetamide] was tested. Which IC50 did it give?
**A.** Its IC50 is at most 100 nM.

**Q.** Which IC50 does the source give for CC(O)(c1ccc(NC(=O)Cc2ccc(S(=O)(=O)CC3CC3)cc2)cc1)C(F)(F)F (centres unmarked) [Example 71, 2-(4-((cyclopropylmethyl)sulfonyl)phenyl)-N-(4-(1,1,1-trifluoro-2-hydroxypropan-2-yl)phenyl)acetamide] here?
**A.** Its IC50 is at most 100 nM.

**Q.** CCNS(=O)(=O)c1ccc(CC(=O)Nc2ccc(C(O)(C(F)(F)F)C(F)(F)F)cc2)cc1 [Example 10, 2-(4-(N-ethylsulfamoyl)phenyl)-N-(4-(1,1,1,3,3,3-hexafluoro-2-hydroxypropan-2-yl)phenyl)acetamide] was tested. Which IC50 did it give?
**A.** Its IC50 is at most 1000 nM.

**Q.** O=C(Cc1cccc(S(=O)(=O)NC2CC2)c1)Nc1ccc(C(O)(C(F)(F)F)C(F)(F)F)cc1F [Example 40, 2-(3-(N-cyclopropylsulfamoyl)phenyl)-N-(2-fluoro-4-(1,1,1,3,3,3-hexafluoro-2-hydroxypropan-2-yl)phenyl)acetamide] was tested. Which IC50 did it give?
**A.** The IC50 was at most 1000 nM.

**Q.** Which IC50 does the source give for CCCOC(c1ccc(NC(=O)Cc2ccc(S(=O)(=O)CC)cc2)cc1)(C(F)(F)F)C(F)(F)F [Example 49, 2-(4-(ethylsulfonyl)phenyl)-N-(4-(1,1,1,3,3,3-hexafluoro-2-propoxypropan-2-yl)phenyl)acetamide] here?
**A.** Its IC50 is at most 100 nM.

**Q.** With CCS(=O)(=O)c1ccc(CC(=O)Nc2ccc(C(O)(C(F)(F)F)C(F)(F)F)c(F)c2C)cc1 [Example 15, 2-(4-(ethylsulfonyl)phenyl)-N-(3-fluoro-4-(1,1,1,3,3,3-hexafluoro-2-hydroxypropan-2-yl)-2-methylphenyl)acetamide] as the compound, how does the IC50 read?
**A.** Its IC50 is at most 1000 nM.

**Q.** Which IC50 does the source give for CCS(=O)(=O)c1ccc(CC(=O)Nc2cc(Cl)c(C(O)(C(F)(F)F)C(F)(F)F)cc2OC)cc1 [Example 22, N-(5-chloro-4-(1,1,1,3,3,3-hexafluoro-2-hydroxypropan-2-yl)-2-methoxyphenyl)-2-(4-(ethylsulfonyl)phenyl)acetamide] here?
**A.** The IC50 was at most 1000 nM.

**Q.** For CCS(=O)(=O)c1ccc(CC(=O)Nc2ccc(C(O)(C(F)(F)F)C(F)(F)F)c(Cl)c2)cc1 [Example 84, N-(3-chloro-4-(1,1,1,3,3,3-hexafluoro-2-hydroxypropan-2-yl)phenyl)-2-(4-(ethylsulfonyl)phenyl)acetamide], which IC50 is on record?
**A.** Its IC50 is at most 1000 nM.

**Q.** For Cc1cc(C(O)(C(F)(F)F)C(F)(F)F)ccc1NC(=O)Cc1ccc(S(=O)(=O)NC2CC2)cc1 [Example 34, 2-(4-(N-cyclopropylsulfamoyl)phenyl)-N-(4-(1,1,1,3,3,3-hexafluoro-2-hydroxypropan-2-yl)-2-methylphenyl)acetamide], which IC50 is on record?
**A.** Its IC50 is at most 1000 nM.

**Q.** CC(C)CC(O)(c1ccc(NC(=O)Cc2ccc(S(=O)(=O)NC3CC3)cc2)cc1)C(F)(F)F (centres unmarked) [Example 76, 2-(4-(N-cyclopropylsulfamoyl)phenyl)-N-(4-(1,1,1-trifluoro-2-hydroxy-4-methylpentan-2-yl)phenyl)acetamide] was tested. Which IC50 did it give?
**A.** Its IC50 is at most 100 nM.

**Q.** With O=C(Cc1ccc(S(=O)(=O)CC2CC2)cc1)Nc1ccc(C(O)(C2CC2)C(F)(F)F)cc1 (centres unmarked) [Example 67, N-(4-(1-cyclopropyl-2,2,2-trifluoro-1-hydroxyethyl)phenyl)-2-(4-((cyclopropylmethyl)sulfonyl)phenyl)acetamide] as the compound, how does the IC50 read?
**A.** The IC50 was at most 100 nM.

**Q.** Which IC50 does the source give for CCS(=O)(=O)c1ccc(CC(=O)Nc2ccc(C(O)(CC(C)C)C(F)(F)F)cc2)cc1 (centres unmarked) [Example 66, 2-(4-(ethylsulfonyl)phenyl)-N-(4-(1,1,1-trifluoro-2-hydroxy-4-methylpentan-2-yl)phenyl)acetamide] here?
**A.** The IC50 was at most 100 nM.

**Q.** For CCS(=O)(=O)c1ccc(CC(=O)Nc2ccc(C(O)(CC3CCCCC3)C(F)(F)F)cc2)cc1 (centres unmarked) [Example 74, N-(4-(3-cyclohexyl-1,1,1-trifluoro-2-hydroxypropan-2-yl)phenyl)-2-(4-(ethylsulfonyl)phenyl)acetamide], which IC50 is on record?
**A.** Its IC50 is at most 1000 nM.

**Q.** With CCCCC(O)(c1ccc(NC(=O)Cc2ccc(S(=O)(=O)CC3CC3)cc2)cc1)C(F)(F)F (centres unmarked) [Example 64, 2-(4-((cyclopropylmethyl)sulfonyl)phenyl)-N-(4-(1,1,1-trifluoro-2-hydroxyhexan-2-yl)phenyl)acetamide] as the compound, how does the IC50 read?
**A.** The IC50 was at most 10 nM.
